In patent publication US12661410B2, “Compounds for targeted degradation of RET” (C4 Therapeutics, Inc., priority 2020, dated 2026):
Like-named read-outs stand apart in the source and are kept apart here.

Assay: Plasma and brain tumor concentration in mice bearing intracranial CR^2518 tumors (LC/MS/MS)
Assay type: in vivo
Settings: female, BALB/c nude, mouse, single IV dose 30 mg/kg, mice bearing CR^2518 brain tumors
Procedure: For intracranial PDX model CR^2518, tumors were first grown in stock mice, then tumor fragments were harvested and digested for cell suspension preparation. 5×10^5 CR^2518 cells in 4 μl PBS were injected intracranially over 5 min, 2.5 mm intraparenchymally, 2 mm lateral from and 0.5 mm anterior to the bregma for tumor development in female BALB/c nude mice. With the appearance of clinical signs (body weight loss, inactivity), mice were randomized into groups of 3, stratified to result in about equal average body weight, and dosing was initiated on Day 0.
Compound 122 was formulated in 40% PEG400 and 60% of 10% hydroxypropyl beta cyclodextrin (HPPCD) in double distilled water, which was also used for the vehicle group. […] Tumor volume was measured in two dimensions using calipers, and volume (mm^3) was calculated using the formula: V=0.5 a×b^2 where a and b are the long and short diameters of the tumor in mm, respectively.
3 tumors and plasma samples were collected per each time point sampled. For pharmacokinetic analysis, plasma and tumor samples were injected into LC/MS/MS system for quantitative analysis. […] Protein concentration was quantified using a Pierce™ BCA Protein Assay Kit, samples were reduced, and equal protein amounts were then loaded onto a western blot gel for analysis. […]

concentration at 5 h (brain tumor, read-out: brain tumor concentration): 2840 ng/g
concentration at 5 h (plasma, read-out: plasma concentration): 1720 ng/mL
SMILES: CCC1(C(=O)NC(C)C)CCN(c2ccc(-c3nc(-c4cnn([C@H]5CC[C@H](N6CCC(c7ccc(NC8CCC(=O)NC8=O)cc7F)CC6)CC5)c4)cn4ncc(C#N)c34)cn2)CC1 (single isomer, unassigned) [Compound 122, 1-(5-(3-cyano-6-(1-((1r, 4r)-4-(4-(4-((2,6-dioxopiperidin-3-yl)amino)-2-fluorophenyl)piperidin-1-yl)cyclohexyl)-1H-pyrazol-4-yl)pyrazolo[1,5-a]pyrazin-4-yl)pyridin-2-yl)-4-ethyl-N-isopropylpiperidine-4-carboxamide]
